Experimental data reported in patent US7528274B2, “Acylthiols and component thiol compositions as anti-HIV and anti-retroviral agents” (The United States of America as represented by the …, priority 2001, dated 2009).
Where two headings read alike, the source gives them in different places.

Columns and labels:
[1] = system: HIV transgenic mouse model spleen cells; assay: Cytotoxicity, HIV transgenic mouse model spleen cells; assay type: cell-based
Description: (§1) One of the advantages of the compounds of the present invention over previously identified antiretroviral agents is their increased hydrolytic stability, which improves their biological activity and reduces the amount of compound that must be delivered to a treated subject to produce the desired effect. […] A PATE compound having the following structure is included: […]

[2] = XTT assay, cytotoxicity (cellular growth inhibition) in CEM-SS cells; assay type: cell-based; conditions: human
Description: (§2) One exemplary means to determine antiviral activity is with CEM-SS cells and virus (e.g., HIV-1RF) (MOI=0.01) using the XTT (2,3-bis[2-methoxy-4-nitro-5-sulfophenyl]-5-[(phenylamino)carbonyl]-2H-tetrazolium hydroxide) cytoprotection assay, as described by Rice (1993) PNAS 90:9721-9724, and Rice (1997) Antimicrob. Agents Chemother. […] Briefly, cells are infected with HIV-1RF (or other virus to be tested) in the presence of various dilutions of test compounds or control compounds. The cultures are incubated for seven days. […] The cell death is measured by XTT dye reduction. XTT is a soluble tetrazolium dye that measures mitochondrial energy output, similar to MTT. […] Individual assays are done in duplicate using a sister plate method.
as §2, with “{2,3-bis[2-methoxy-4-nitro-5-sulfophenyl]-5- -[(phenylamino)carbonyl]-2H-tetrazolium hydroxide}” for “(2,3-bis[2-methoxy-4-nitro-5-sulfophenyl]-5-[(phenylamino)carbonyl]-2H-tetrazolium hydroxide)”, “Proc. Natl. Acad. Sci. USA 90: 9721-9724,” for “PNAS 90:9721-9724,”, “Agents &” for “Agents”, “and controls.” for “or control compounds.”, “method. […] Compound numbers therein refer to the numbers used in FIG. 1.” for “method.”

[3] = system: HIV p24; assay: p24 inhibition ELISA assay, HIV transgenic mouse model spleen cells; assay type: cell-based; conditions: for EC50: Human immunodeficiency virus 1; for Therapeutic Index: p24 inhibition ELISA, HIV transgenic mouse model spleen cells
Description: as §1

[4] = system: HIV-1RF; assay: XTT cytoprotection assay, CEM-SS cells infected with HIV-1RF; assay type: cell-based; conditions: HIV-1RF, CEM-SS cells; for EC50: read-out: EC50 (50% cytoprotection), seven days, XTT
Description: as §2
as §2, with “{2,3-bis[2-methoxy-4-nitro-5-sulfophenyl]-5- -[(phenylamino)carbonyl]-2H-tetrazolium hydroxide}” for “(2,3-bis[2-methoxy-4-nitro-5-sulfophenyl]-5-[(phenylamino)carbonyl]-2H-tetrazolium hydroxide)”, “Proc. Natl. Acad. Sci. USA 90: 9721-9724,” for “PNAS 90:9721-9724,”, “Agents &” for “Agents”, “and controls.” for “or control compounds.”, “method. […] Compound numbers therein refer to the numbers used in FIG. 1.” for “method.”

[5] = Hydrolysis assay (relative rates of hydrolysis); assay type: in vitro ADME
Description: as §1

[6] = system: HIV-1 virus; assay: Infectivity of treated virions, PCR assay for intracellularly-synthesized viral RNA; assay type: cell-based
Description: The treated virions can also be tested for infectivity. The virions are suspended in media (rather than solubilized) and added to target cells. The cultures are then examined to determine whether the virions are still active. To determine whether the treated virus particles are active, the cells are monitored for the presence of intracellularly-synthesized viral RNA using, for example, the polymerase chain reaction (PCR) (Rice (1993) Proc. Natl. Acad. Sci. USA 90:9721; Turpin (1996) J. Virol. 70:6180). Alternatively, cytoprotection assays can be used (Weislow (1993) J. Natl. Cancer Inst. 81:577). An example of a compound which can be used as a control in the gel mobility shift assay is azodicarbonamide (ADA), a compound which is commercially available from the Aldrich Chemical Company (Milwaukee, Wis.).

[7] = system: CEM-SS; assay: XTT assay, cytotoxicity, HIV-2 (Rod/CEM-SS) section; assay type: cell-based
Description: as §2, with “{2,3-bis[2-methoxy-4-nitro-5-sulfophenyl]-5- -[(phenylamino)carbonyl]-2H-tetrazolium hydroxide}” for “(2,3-bis[2-methoxy-4-nitro-5-sulfophenyl]-5-[(phenylamino)carbonyl]-2H-tetrazolium hydroxide)”, “Proc. Natl. Acad. Sci. USA 90: 9721-9724,” for “PNAS 90:9721-9724,”, “Agents &” for “Agents”, “and controls.” for “or control compounds.”, “method. […] Compound numbers therein refer to the numbers used in FIG. 1.” for “method.”

[8] = system: HIV-1 144-44 (mutation L10I/M46I/I54V/L63P/A71V/V82A/L90M); assay: XTT assay against drug resistant mutant HIV-1 144-44 in PBMCs; assay type: cell-based; conditions: HIV-1 144-44/PBMCs
Description: as §2, with “{2,3-bis[2-methoxy-4-nitro-5-sulfophenyl]-5- -[(phenylamino)carbonyl]-2H-tetrazolium hydroxide}” for “(2,3-bis[2-methoxy-4-nitro-5-sulfophenyl]-5-[(phenylamino)carbonyl]-2H-tetrazolium hydroxide)”, “Proc. Natl. Acad. Sci. USA 90: 9721-9724,” for “PNAS 90:9721-9724,”, “Agents &” for “Agents”, “and controls.” for “or control compounds.”, “method. […] Compound numbers therein refer to the numbers used in FIG. 1.” for “method.”

[9] = system: cells; assay: XTT assay, cytotoxicity, SIV (Mac 251) section; assay type: cell-based
Description: as §2, with “{2,3-bis[2-methoxy-4-nitro-5-sulfophenyl]-5- -[(phenylamino)carbonyl]-2H-tetrazolium hydroxide}” for “(2,3-bis[2-methoxy-4-nitro-5-sulfophenyl]-5-[(phenylamino)carbonyl]-2H-tetrazolium hydroxide)”, “Proc. Natl. Acad. Sci. USA 90: 9721-9724,” for “PNAS 90:9721-9724,”, “Agents &” for “Agents”, “and controls.” for “or control compounds.”, “method. […] Compound numbers therein refer to the numbers used in FIG. 1.” for “method.”

[10] = system: cells; assay: XTT assay, cytotoxicity, HIV-1 1026040 section; assay type: cell-based
Description: as §2, with “{2,3-bis[2-methoxy-4-nitro-5-sulfophenyl]-5- -[(phenylamino)carbonyl]-2H-tetrazolium hydroxide}” for “(2,3-bis[2-methoxy-4-nitro-5-sulfophenyl]-5-[(phenylamino)carbonyl]-2H-tetrazolium hydroxide)”, “Proc. Natl. Acad. Sci. USA 90: 9721-9724,” for “PNAS 90:9721-9724,”, “Agents &” for “Agents”, “and controls.” for “or control compounds.”, “method. […] Compound numbers therein refer to the numbers used in FIG. 1.” for “method.”

[11] = system: HIV-2 (Rod); assay: XTT cytoprotection assay, HIV-2 (Rod/CEM-SS); assay type: cell-based
Description: as §2, with “{2,3-bis[2-methoxy-4-nitro-5-sulfophenyl]-5- -[(phenylamino)carbonyl]-2H-tetrazolium hydroxide}” for “(2,3-bis[2-methoxy-4-nitro-5-sulfophenyl]-5-[(phenylamino)carbonyl]-2H-tetrazolium hydroxide)”, “Proc. Natl. Acad. Sci. USA 90: 9721-9724,” for “PNAS 90:9721-9724,”, “Agents &” for “Agents”, “and controls.” for “or control compounds.”, “method. […] Compound numbers therein refer to the numbers used in FIG. 1.” for “method.”

[12] = system: HIV-1 1026040 (mutation V32I/M46I/L63P/L90M); assay: XTT assay against drug resistant mutant HIV-1 1026040; assay type: cell-based
Description: as §2, with “{2,3-bis[2-methoxy-4-nitro-5-sulfophenyl]-5- -[(phenylamino)carbonyl]-2H-tetrazolium hydroxide}” for “(2,3-bis[2-methoxy-4-nitro-5-sulfophenyl]-5-[(phenylamino)carbonyl]-2H-tetrazolium hydroxide)”, “Proc. Natl. Acad. Sci. USA 90: 9721-9724,” for “PNAS 90:9721-9724,”, “Agents &” for “Agents”, “and controls.” for “or control compounds.”, “method. […] Compound numbers therein refer to the numbers used in FIG. 1.” for “method.”

[13] = system: PBMCs; assay: XTT assay, cytotoxicity, HIV-1 144-44/PBMCs section; assay type: cell-based
Description: as §2, with “{2,3-bis[2-methoxy-4-nitro-5-sulfophenyl]-5- -[(phenylamino)carbonyl]-2H-tetrazolium hydroxide}” for “(2,3-bis[2-methoxy-4-nitro-5-sulfophenyl]-5-[(phenylamino)carbonyl]-2H-tetrazolium hydroxide)”, “Proc. Natl. Acad. Sci. USA 90: 9721-9724,” for “PNAS 90:9721-9724,”, “Agents &” for “Agents”, “and controls.” for “or control compounds.”, “method. […] Compound numbers therein refer to the numbers used in FIG. 1.” for “method.”

[14] = system: SIV (Mac 251); assay: XTT cytoprotection assay, SIV (Mac 251); assay type: cell-based
Description: as §2, with “{2,3-bis[2-methoxy-4-nitro-5-sulfophenyl]-5- -[(phenylamino)carbonyl]-2H-tetrazolium hydroxide}” for “(2,3-bis[2-methoxy-4-nitro-5-sulfophenyl]-5-[(phenylamino)carbonyl]-2H-tetrazolium hydroxide)”, “Proc. Natl. Acad. Sci. USA 90: 9721-9724,” for “PNAS 90:9721-9724,”, “Agents &” for “Agents”, “and controls.” for “or control compounds.”, “method. […] Compound numbers therein refer to the numbers used in FIG. 1.” for “method.”

[15] = system: HIV-1 (RoJo); assay type: cell-based; conditions: HIV-1 (RoJo/PBMCs)
Description: as §2, with “{2,3-bis[2-methoxy-4-nitro-5-sulfophenyl]-5- -[(phenylamino)carbonyl]-2H-tetrazolium hydroxide}” for “(2,3-bis[2-methoxy-4-nitro-5-sulfophenyl]-5-[(phenylamino)carbonyl]-2H-tetrazolium hydroxide)”, “Proc. Natl. Acad. Sci. USA 90: 9721-9724,” for “PNAS 90:9721-9724,”, “Agents &” for “Agents”, “and controls.” for “or control compounds.”, “method. […] Compound numbers therein refer to the numbers used in FIG. 1.” for “method.”

[16] = system: PBMCs; assay: XTT assay, cytotoxicity, HIV-1 (RoJo/PBMCs) section; assay type: cell-based
Description: as §2, with “{2,3-bis[2-methoxy-4-nitro-5-sulfophenyl]-5- -[(phenylamino)carbonyl]-2H-tetrazolium hydroxide}” for “(2,3-bis[2-methoxy-4-nitro-5-sulfophenyl]-5-[(phenylamino)carbonyl]-2H-tetrazolium hydroxide)”, “Proc. Natl. Acad. Sci. USA 90: 9721-9724,” for “PNAS 90:9721-9724,”, “Agents &” for “Agents”, “and controls.” for “or control compounds.”, “method. […] Compound numbers therein refer to the numbers used in FIG. 1.” for “method.”

[17] = system: CEM-SS cells; assay: XTT assay, cytotoxicity (cellular growth inhibition) in CEM-SS cells; assay type: cell-based; conditions: read-out: IC50 (50% cytotoxicity)
Description: as §2
as §2, with “{2,3-bis[2-methoxy-4-nitro-5-sulfophenyl]-5- -[(phenylamino)carbonyl]-2H-tetrazolium hydroxide}” for “(2,3-bis[2-methoxy-4-nitro-5-sulfophenyl]-5-[(phenylamino)carbonyl]-2H-tetrazolium hydroxide)”, “Proc. Natl. Acad. Sci. USA 90: 9721-9724,” for “PNAS 90:9721-9724,”, “Agents &” for “Agents”, “and controls.” for “or control compounds.”, “method. […] Compound numbers therein refer to the numbers used in FIG. 1.” for “method.”

[18] = Human immunodeficiency virus 1, 168 h

Compound: CC(C)(C)c1ccc(C(=O)Sc2ccccc2C(=O)NCCC(N)=O)cc1 [Compound 23]
- IC50 [1]: 123 µM
- IC50 at 7 days [2]: 107 µM
- EC50 [3]: 2.2 µM
- Therapeutic Index [3]: 56
- Therapeutic Index [4]: 24
- EC50 [4, 18]: 4.5 µM
- half-life [5]: > 8.33 h

Compound: Cc1cccc(C(=O)NCCC(N)=O)c1SC(=O)c1ccccc1 [Compound 61]
- EC50 [3]: 15.7 µM
- half-life [5]: 7.02 h

Compound: NC(=O)N=NC(N)=O [ADA, azodicarbonamide]
- Inactivation of HIV-1 virus [6]: inactivates HIV-1 virus

Compound: COc1ccc(C(=O)Sc2ccccc2C(=O)NCCC(N)=O)cc1OC [Compound 11]
- IC50 [1]: > 250 µM
- IC50 at 7 days [2]: 165 µM
- EC50 [3]: 3.6 µM
- Therapeutic Index [3]: >69
- Therapeutic Index [4]: 24
- EC50 [4, 18]: 6.9 µM
- half-life [5]: 4.07 h

Compound: NC(=O)C1CN1C(=O)c1ccccc1SC(=O)NC1CCCCC1 (centres unmarked) [Compound 129]
- IC50 [7]: 6.54 µM
- EC50 [8]: 0.17 µM
- TI [8]: >1168
- IC50 [9]: 21.8 µM
- IC50 [10]: > 200 µM
- EC50 [11]: 0.104 µM
- EC50 [12]: 4 µM
- TI [12]: >51
- IC50 [13]: > 200 µM
- EC50 [14]: 0.29 µM
- EC50 [15]: 3.8 µM
- EC50 [4]: 0.55 µM
- IC50 [16]: 184 µM

Compound: COc1cc(OC)cc(C(=O)Sc2ccccc2C(=O)NCCC(N)=O)c1 [Compound 12]
- IC50 [1]: 136 µM
- IC50 at 7 days [2]: 102 µM
- EC50 [3]: 3.5 µM
- Therapeutic Index [3]: 39
- Therapeutic Index [4]: 13
- EC50 [4, 18]: 8.1 µM
- half-life [5]: 7.75 h

Compound: CC(C)(C)CC(C)(C)NC(=O)Sc1ccccc1C(=O)N1CC1C(N)=O (centres unmarked) [Compound 131]
- IC50 [17]: 35.8 µM
- Therapeutic Index [4]: 80
- EC50 [4]: 0.45 µM

Compound: Cc1cn([C@H]2C[C@H](N=[N+]=[N-])[C@@H](CO)O2)c(=O)[nH]c1=O [AZT, 3′-azido-2′, 3′-dideoxythymidine, reference compound]
- IC50 [7]: > 1 µM
- EC50 [8]: 1.3 µM
- TI [8]: >153
- IC50 [9]: > 1 µM
- IC50 [10]: > 1 µM
- EC50 [11]: 0.017 µM
- EC50 [12]: 0.006 µM
- TI [12]: >167
- IC50 [13]: > 200 µM
- EC50 [14]: 0.02 µM
- EC50 [15]: 0.01 µM
- IC50 [16]: > 4 µM

Compound: Cc1ccccc1C(=O)Sc1ccccc1C(=O)NCCC(N)=O [Compound 22]
- IC50 [1]: 59 µM
- IC50 at 7 days [2]: 22 µM
- EC50 [3]: 2.6 µM
- Therapeutic Index [3]: 23
- Therapeutic Index [4]: 2.3
- EC50 [4, 18]: 9.7 µM
- half-life [5]: 6.8 h
